From PubChem BioAssay AID1919014 (Molecular Pharmacology Branch, DTP, NCI, 2023)

Test system: NCI-H1341 complex spheroids, percent test/control
Test: Anticancer human tumor NCI-H1341 cell line growth inhibition [AhR];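 note: spheroids exposed to agents for seven days before readout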
Settings: for IC50: curve of first compound; for viability, T/C: stronger effect = lower value
Outline: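 Complex tumor spheroids co-cultured with HUVEC and human MSC stroma; AhR antagonists tested in combination with standard-of-care and investigational agents. Top concentration at or near clinical Cmax (else 10 microM), half-log dilutions; growth expressed as percent test/control.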

[1] = second compound 0.1 µM, first compound 0.0316 µM
[2] = second compound 0.1 µM, first compound 0.1 µM
[3] = second compound 0.1 µM, first compound 0.316 µM
[4] = second compound 0.1 µM, first compound 1 µM
[5] = second compound 0.1 µM, first compound 3.16 µM
[6] = second compound 0.1 µM, first compound 10 µM
[7] = second compound 0.316 µM, first compound 0.0316 µM
[8] = second compound 0.316 µM, first compound 0.1 µM
[9] = second compound 0.316 µM, first compound 0.316 µM
[10] = second compound 0.316 µM, first compound 1 µM
[11] = second compound 0.316 µM, first compound 3.16 µM
[12] = second compound 0.316 µM, first compound 10 µM
[13] = second compound 1 µM, first compound 0.0316 µM
[14] = second compound 1 µM, first compound 0.1 µM
[15] = second compound 1 µM, first compound 0.316 µM
[16] = second compound 1 µM, first compound 1 µM
[17] = second compound 1 µM, first compound 3.16 µM
[18] = second compound 1 µM, first compound 10 µM
[19] = second compound 3.16 µM, first compound 0.0316 µM
[20] = second compound 3.16 µM, first compound 0.1 µM
[21] = second compound 3.16 µM, first compound 0.316 µM
[22] = second compound 3.16 µM, first compound 1 µM
[23] = second compound 3.16 µM, first compound 3.16 µM
[24] = second compound 3.16 µM, first compound 10 µM
[25] = second compound 10 µM, first compound 0.0316 µM
[26] = second compound 10 µM, first compound 0.1 µM
[27] = second compound 10 µM, first compound 0.316 µM
[28] = second compound 10 µM, first compound 1 µM
[29] = second compound 10 µM, first compound 3.16 µM
[30] = second compound 10 µM, first compound 10 µM
[31] = second compound 0.1 µM, first compound 0.00316 µM
[32] = second compound 0.1 µM, first compound 0.01 µM
[33] = second compound 0.316 µM, first compound 0.00316 µM
[34] = second compound 0.316 µM, first compound 0.01 µM
[35] = second compound 1 µM, first compound 0.00316 µM
[36] = second compound 1 µM, first compound 0.01 µM
[37] = second compound 3.16 µM, first compound 0.00316 µM
[38] = second compound 3.16 µM, first compound 0.01 µM
[39] = second compound 10 µM, first compound 0.00316 µM
[40] = second compound 10 µM, first compound 0.01 µM

SMILES	IC50 (second compound 0.1 µM)	IC50 (second compound 0.316 µM)	IC50 (second compound 1 µM)	IC50 (second compound 3.16 µM)	IC50 (second compound 10 µM)	viability, T/C [1]	viability, T/C [2]	viability, T/C [3]	viability, T/C [4]	viability, T/C [7]	viability, T/C [8]	viability, T/C [9]	viability, T/C [10]	viability, T/C [13]	viability, T/C [14]	viability, T/C [15]	viability, T/C [19]	viability, T/C [20]	viability, T/C [25]	viability, T/C [26]	also measured
CC(C)c1c(-c2ccccc2)nc2c(C#N)c[nH]n2c1=O + CC(CO)NC(=O)c1cc(-c2ccc(Cl)cc2)nn(-c2cnn(C)c2)c1=O	> 10 µM	> 10 µM	> 10 µM	> 10 µM	> 10 µM	85.4%	89.8%	78.7%	82.6%	86.8%	95.6%	93%	100%	96.1%	91.2%	95.6%	84.5%	99.2%	86.2%	74.4%	viability, T/C [5]: 101%; viability, T/C [6]: 88.4%; viability, T/C [11]: 86.5%; viability, T/C [12]: 73%; viability, T/C [16]: 94.5%; viability, T/C [17]: 76.2%; viability, T/C [18]: 69.5%; viability, T/C [21]: 106%; viability, T/C [22]: 81.8%; viability, T/C [23]: 64.5%; viability, T/C [24]: 79.1%; viability, T/C [27]: 74.2%; viability, T/C [28]: 71.6%; viability, T/C [29]: 70.9%; viability, T/C [30]: 59.8%
COc1ccc([C@@H](O)c2cc(-c3ncnc4cc(N5CCOCC5)ccc34)c(F)cc2Cl)nn1 + CC(CO)NC(=O)c1cc(-c2ccc(Cl)cc2)nn(-c2cnn(C)c2)c1=O	1.47 µM	1.14 µM	1.06 µM	1.22 µM	0.691 µM	101%	89.7%	82.5%	61%	88%	93.7%	72.7%	48.8%	89.7%	83.8%	76.6%	79.6%	84.8%	90.2%	75.8%	viability, T/C [5]: 29.6%; viability, T/C [6]: 8.94%; viability, T/C [11]: 32.7%; viability, T/C [12]: 8.73%; viability, T/C [16]: 48.2%; viability, T/C [17]: 28.2%; viability, T/C [18]: 8.67%; viability, T/C [21]: 85.9%; viability, T/C [22]: 52.7%; viability, T/C [23]: 24%; viability, T/C [24]: 7.24%; viability, T/C [27]: 68.2%; viability, T/C [28]: 41.5%; viability, T/C [29]: 22.1%; viability, T/C [30]: 7.39%
CC[C@@]1(O)C(=O)OCc2c1cc1n(c2=O)Cc2cc3c(CN(C)C)c(O)ccc3nc2-1 + Cc1ccccc1N=Nc1ccc(NC(=O)c2ccnn2C)c(C)c1	0.0591 µM	> 0.1 µM	0.0671 µM	> 0.1 µM	0.0352 µM	51.8%	47.5%			49.9%	52.9%			57.2%	45.8%		45.2%	52.9%	49.6%	48.6%	viability, T/C (second compound 0.1 µM, first compound 0.000316 µM): 103%; viability, T/C (second compound 0.1 µM, first compound 0.001 µM): 99.8%; viability, T/C [31]: 91.1%; viability, T/C [32]: 80.2%; viability, T/C (second compound 0.316 µM, first compound 0.000316 µM): 99.5%; viability, T/C (second compound 0.316 µM, first compound 0.001 µM): 83.4%; viability, T/C [33]: 97.7%; viability, T/C [34]: 74.6%; viability, T/C (second compound 1 µM, first compound 0.000316 µM): 97.4%; viability, T/C (second compound 1 µM, first compound 0.001 µM): 83.5%; viability, T/C [35]: 82.3%; viability, T/C [36]: 70.2%; viability, T/C (second compound 3.16 µM, first compound 0.000316 µM): 76.6%; viability, T/C (second compound 3.16 µM, first compound 0.001 µM): 94.7%; viability, T/C [37]: 65.5%; viability, T/C [38]: 64.2%; viability, T/C (second compound 10 µM, first compound 0.000316 µM): 46.4%; viability, T/C (second compound 10 µM, first compound 0.001 µM): 58%; viability, T/C [39]: 51.6%; viability, T/C [40]: 49.8%
COc1cc(C2c3cc4c(cc3C(OC3OC5COC(C)OC5C(O)C3O)C3COC(=O)C23)OCO4)cc(OC)c1O (stereo not given) + Cc1ccccc1N=Nc1ccc(NC(=O)c2ccnn2C)c(C)c1	0.834 µM	10 µM	0.725 µM	0.255 µM	< 0.0316 µM	92.2%	82.4%	56%	46%	71.3%	79%	57.1%	50.4%	90.1%	88.5%	58.2%	66.6%	68.4%	45.2%	46.6%	viability, T/C [5]: 46.3%; viability, T/C [6]: 53.4%; viability, T/C [11]: 54.6%; viability, T/C [12]: 48.9%; viability, T/C [16]: 50.2%; viability, T/C [17]: 44.7%; viability, T/C [18]: 44.5%; viability, T/C [21]: 43.3%; viability, T/C [22]: 43.5%; viability, T/C [23]: 46.9%; viability, T/C [24]: 50.2%; viability, T/C [27]: 57.1%; viability, T/C [28]: 44.6%; viability, T/C [29]: 40.1%; viability, T/C [30]: 49.9%
COc1cccc2c1C(=O)c1c(O)c3c(c(O)c1C2=O)CC(O)(C(=O)CO)CC3OC1CC(N)C(O)C(C)O1 (stereo not given) + Cc1ccccc1N=Nc1ccc(NC(=O)c2ccnn2C)c(C)c1	0.0928 µM	< 0.0316 µM	0.166 µM	< 0.0316 µM	< 0.0316 µM	59.7%	44.6%	37.9%	18.2%	50%	48.6%	38.2%	24.2%	58.8%	51.5%	44.6%	50.1%	48.2%	40.9%	41.2%	viability, T/C [5]: 1.96%; viability, T/C [6]: 4.55%; viability, T/C [11]: 2.31%; viability, T/C [12]: 4.21%; viability, T/C [16]: 16.5%; viability, T/C [17]: 2.36%; viability, T/C [18]: 4.45%; viability, T/C [21]: 41.1%; viability, T/C [22]: 16.2%; viability, T/C [23]: 3.35%; viability, T/C [24]: 5.99%; viability, T/C [27]: 35.9%; viability, T/C [28]: 14.4%; viability, T/C [29]: 5.03%; viability, T/C [30]: 4.31%
Nc1ncn(C2CC(O)C(CO)O2)c(=O)n1 (stereo not given) + Cc1ccccc1N=Nc1ccc(NC(=O)c2ccnn2C)c(C)c1	> 1 µM	> 1 µM	> 1 µM	0.763 µM	0.135 µM	84.1%	63.7%	59.6%	51%	100%	79.2%	53.8%	51%	81%	60.2%	63%	68.5%	61.8%	61.8%	49.9%	viability, T/C [31]: 102%; viability, T/C [32]: 103%; viability, T/C [33]: 102%; viability, T/C [34]: 101%; viability, T/C [35]: 100%; viability, T/C [36]: 97%; viability, T/C [16]: 54.5%; viability, T/C [37]: 81.4%; viability, T/C [38]: 77%; viability, T/C [21]: 53.1%; viability, T/C [22]: 49.7%; viability, T/C [39]: 70.6%; viability, T/C [40]: 54.9%; viability, T/C [27]: 47.8%; viability, T/C [28]: 42.1%
